Laboratory results from article PMC10539329, “NLRP6 potentiates PI3K/AKT signalling by promoting autophagic degradation of p85α to drive tumorigenesis” (Nature Communications, 2023).

How the values were obtained:
U251 cells = assay: Cell proliferation / viability assay, U251 (PTEN deficient); format: cell-based, Human; conditions: Supplementary Figure 8i
Experimental: (§1) Cells were seeded into 12-well plates at a density of 1 × 10^4 cells per well. Manual cell counting was carried out at the indicated times using trypan blue and a haemocytometer.
(§2) To determine the antitumour effect of the peptide in vitro, the peptide was incubated with cells for 24 h when the cells were grown to approximately 80% confluence. Cell viability was measured at the indicated time points. The cell lysates were collected for immunoprecipitation as described above. To determine the antitumour effect of the peptide in vivo, the peptide was stereotactically injected using identical coordinates of tumour implantation in 3 μl of PBS. Briefly, 3 weeks after intracranial tumour cell implantation, mice with similar tumour sizes and similar weights were selected and randomly arranged into five groups (n = 6): PBS, PepC (0.25 mg/kg TAT-PepC per injection), Pep9 low dose (Pep9 L, 0.05 mg/kg TAT-Pep9 per injection), Pep9 medium dose (Pep9 M, 0.1 mg/kg TAT-Pep9 per injection), and Pep9 high dose (Pep9 H, 0.25 mg/kg TAT-Pep9 per injection). Each mouse received intratumoural injection every 10 days (at Day 21, Day 31, Day 41, and Day 51), and tumour growth was monitored at Day 21, Day 41, and Day 56. The experiment was terminated at Day 80, and all the mice (if they were alive) were sacrificed as previously described.

LN18 cells = assay: Cell proliferation / viability assay, LN18; format: cell-based, Human; conditions: Supplementary Figure 8c
Experimental: as §1, §2

Which Relative cell viability (U251 cells; 5 μM, replicate 1) does the source give for “SAEGYQYRALYD [Pep1, peptide found on the p85α SH3 domain; selected as the control named PepC]” here?
The Relative cell viability was 1.01.

What about the Relative cell viability (U251 cells; 5 μM, replicate 2) of the same sequence?
Its Relative cell viability is 1.04.

And the Relative cell viability (U251 cells; 5 μM, replicate 3)?
Its Relative cell viability is 0.94.

And the Relative cell viability (U251 cells; 10 μM, replicate 1)?
Its Relative cell viability is 0.88.

What about the Relative cell viability (U251 cells; 10 μM, replicate 2) of the same sequence?
Its Relative cell viability is 0.87.

And the Relative cell viability (U251 cells; 10 μM, replicate 3)?
The Relative cell viability was 0.79.

What about the Relative cell viability (U251 cells; 20 μM, replicate 1) of the same sequence?
The Relative cell viability was 0.99.

What about the Relative cell viability (U251 cells; 20 μM, replicate 2) of the same sequence?
Its Relative cell viability is 1.04.

And the Relative cell viability (U251 cells; 20 μM, replicate 3)?
The Relative cell viability was 0.91.

What about the Relative cell viability (U251 cells; 30 μM, replicate 1) of the same sequence?
The Relative cell viability was 1.05.

And the Relative cell viability (U251 cells; 30 μM, replicate 2)?
The Relative cell viability was 0.89.

And the Relative cell viability (U251 cells; 30 μM, replicate 3)?
The Relative cell viability was 0.98.

What about the Relative cell viability (LN18 cells; 5 μM, replicate 1) of the same sequence?
Its Relative cell viability is 0.95.

And the Relative cell viability (LN18 cells; 5 μM, replicate 2)?
Its Relative cell viability is 0.92.

And the Relative cell viability (LN18 cells; 5 μM, replicate 3)?
Its Relative cell viability is 0.93.

And the Relative cell viability (LN18 cells; 10 μM, replicate 1)?
Its Relative cell viability is 0.92.

What about the Relative cell viability (LN18 cells; 10 μM, replicate 2) of the same sequence?
The Relative cell viability was 0.95.

What about the Relative cell viability (LN18 cells; 10 μM, replicate 3) of the same sequence?
The Relative cell viability was 0.90.

And the Relative cell viability (LN18 cells; 20 μM, replicate 1)?
Its Relative cell viability is 0.95.

And the Relative cell viability (LN18 cells; 20 μM, replicate 2)?
Its Relative cell viability is 0.92.

And the Relative cell viability (LN18 cells; 20 μM, replicate 3)?
The Relative cell viability was 0.90.

What about the Relative cell viability (LN18 cells; 30 μM, replicate 1) of the same sequence?
The Relative cell viability was 0.92.

And the Relative cell viability (LN18 cells; 30 μM, replicate 2)?
Its Relative cell viability is 0.88.

What about the Relative cell viability (LN18 cells; 30 μM, replicate 3) of the same sequence?
Its Relative cell viability is 0.94.
